Experiments:
human TLR4 = biological target: T1, human TLR4 (Homo sapiens, UniProt O00206+Q9Y6Y9); assay: Human TLR4 NFκB SEAP reporter gene assay in hTLR4-transfected HEK293 cells; format: cell-based; conditions: NFκB SEAP reporter, hTLR4-transfected HEK293 cells, 20 h; read-out: Human TLR4 pEC50 (converted)
T1 construct: expressed in transfected cells; host or cells: HEK293 with stably integrated pNiFty2-SEAP reporter
Experimental: HEK293 cells stably transfected with pNiFty2-SEAP reporter plasmid were transiently transfected with either human or mouse TLR4 (pUNO expression vector), in combination with either human or mouse CD14/MD2 (pDUO expression vector). Transient transfectants were seeded in Dulbecco’s Modified Eagle Medium, FCS 10% (v/v), 2 mM l glutamine and non-essential amino acids. Cells were seeded in tissue culture treated clear flat bottom polystyrene 96 well plates (Costar, 3598) at 1e4 cells/well. Concentration-response curves were generated by addition of test compounds and incubation for 20 h at 37°C in an atmosphere of 5% CO2. LPS (E. coli 0111:B4, Ultra-pure, Invivogen) or PHAD (Avanti Polar Lipids) was used as a positive control. The SEAP released was quantified using p nitrophenyl phosphate as a substrate, and the absorbance at 405 nm was measured at 30 second intervals over several minutes using a microplate reader. Some data are recorded as the pEC50, the negative log of the EC50 value. Other data generated from these reporter cell lines were converted to AUC (area under the curve) values by interpolation of fitted cubic spline curve between OD value and log concentration levels. The calculation is performed using MESS package in statistical software R (www.r-project.org/).

[1] = LogD, octanol/water distribution coefficient; format: physicochemical; conditions: pH 7.4; octanol/water distribution coefficient at pH7.4
Source text: (§1) Fig 2 Optimization stages of Ugi products as TLR4 agonists. *Human TLR-4 NFκB SEAP reporter assays; protocol as described in Methods. Data are reported as pEC50, or negative log of the EC50 values. **Clint rh / hm represents intrinsic clearance in presence of rat hepatocytes (μL/min/10^6 cells) and human microsomes (μL/min/mg protein). […] Thus a drug molecule with LogD >4 might be considered to be very lipophilic and therefore more likely to suffer from rapid metabolic turnover, poor solubility and receptor promiscuity; whereas a LogD range of 1–3 is more likely to be associated with optimal physicochemical and drug-like properties. ^††Solubility was measured by dissolution of solid samples in buffer at pH 7.4.

[2] = Intrinsic clearance in presence of rat hepatocytes; format: in vitro ADME; conditions: read-out: Clint rh (intrinsic clearance, rat hepatocytes)
Source text: as §1

[3] = Intrinsic clearance in presence of human microsomes; format: in vitro ADME; conditions: read-out: Clint hm (intrinsic clearance, human microsomes)
Source text: as §1

wild-type C57BL/6 mice = assay: In vivo serum cytokines in wild-type C57BL/6 mice; design: species or system mouse; conditions: 50 μg IP, serum at 2 h (IL-12 p40, IL-6) and 6 h (IL-12 p40, MIG, RANTES)
Source text: The humanized TLR4/MD-2 mice, described in detail in [15], express human TLR4 and human MD-2 from bacterial artificial chromosome transgenes that were bred to the mouse TLR4/MD-2 double-knockout (DKO) on a C57BL/6J background. Because the hMD-2 BAC transgene is integrated on the Y-chromosome, only male mice were used in the study. Generally, hMD-2 BAC+ males are bred to hTLR4 BAC+ females (both on DKO background) and male pups were screened for the presence of hTLR4 BAC. Double positives served as the fully humanized TLR4/MD-2 mice and hTLR4 BAC negative mice served as functional KO. Wild-type C57BL/6 mice were bred in parallel. All breeding was performed in an SPF facility at the University of Washington and all protocols were approved by the University of Washington IACUC. For in vivo cytokines, mice were injected intraperitoneally with 50 μg of either AZ618 or MPL in 0.2 ml PBS. Mice were bled from the retroorbital sinus 2 h after injection and terminal cardiocentesis was performed at 6 h for the second blood sample. Serum samples were analyzed via MILLIPLEX kits (EMD Millipore).
C57BL/6 mice (6–12 per group) were immunized IP with 50 μg MPL or AZ618 and then were bled at 2 h via retro-orbital route and at 6 h via cardiac puncture. Serum was analyzed by multiplex Millipore kits for cytokine content. […]

T1 sequence (O00206 24-839): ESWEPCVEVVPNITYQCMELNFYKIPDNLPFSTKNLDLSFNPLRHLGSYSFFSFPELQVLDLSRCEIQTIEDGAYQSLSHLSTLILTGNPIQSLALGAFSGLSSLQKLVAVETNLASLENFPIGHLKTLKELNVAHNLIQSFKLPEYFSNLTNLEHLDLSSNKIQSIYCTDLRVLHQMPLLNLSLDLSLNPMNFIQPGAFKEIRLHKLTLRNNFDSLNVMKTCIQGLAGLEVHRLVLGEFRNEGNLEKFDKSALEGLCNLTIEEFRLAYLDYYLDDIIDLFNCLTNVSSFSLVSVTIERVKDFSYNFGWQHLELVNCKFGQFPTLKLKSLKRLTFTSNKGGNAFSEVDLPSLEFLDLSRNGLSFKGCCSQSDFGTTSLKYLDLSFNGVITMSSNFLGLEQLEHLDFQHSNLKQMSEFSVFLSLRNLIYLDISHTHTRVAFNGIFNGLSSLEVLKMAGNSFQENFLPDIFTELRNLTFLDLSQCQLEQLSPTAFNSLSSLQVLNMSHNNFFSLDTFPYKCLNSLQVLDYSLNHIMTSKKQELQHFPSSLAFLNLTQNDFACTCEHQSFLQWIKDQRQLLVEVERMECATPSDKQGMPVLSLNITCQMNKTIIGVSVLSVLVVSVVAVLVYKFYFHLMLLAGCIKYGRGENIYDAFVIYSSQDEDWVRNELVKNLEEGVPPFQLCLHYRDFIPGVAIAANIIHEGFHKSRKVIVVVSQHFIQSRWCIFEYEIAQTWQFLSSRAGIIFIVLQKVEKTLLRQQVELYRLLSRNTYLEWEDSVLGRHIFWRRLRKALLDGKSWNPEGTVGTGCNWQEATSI
T1 sequence (Q9Y6Y9 19-160): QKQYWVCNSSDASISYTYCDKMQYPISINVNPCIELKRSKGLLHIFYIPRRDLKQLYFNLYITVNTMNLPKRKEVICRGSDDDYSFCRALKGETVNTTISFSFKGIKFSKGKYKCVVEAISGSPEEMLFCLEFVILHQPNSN

Structure (SMILES) | EC50 (human TLR4) [nM] | logD [1] | hepatocyte CLint [2] [µL/min/1e6 cells] | microsomal CLint [3] [µL/min/mg] | serum cytokine induction in wild-type C57BL/6 mice (wild-type C57BL/6 mice)
Cc1ccc(N(C(=O)c2cc(-c3ccccc3)n(-c3ccccc3)n2)C(C(=O)NC2CCCC2)c2ccc(CC(=O)O)cc2)cc1Cl (stereo not shown) [AZ161] | 20 | 3.2 |  |  | 
O=C(O)Cc1ccc(C(C(=O)NC2CCCC2)N(C(=O)c2cc(-c3ccccc3)n(-c3ccccc3)n2)c2ccc3c(c2)CCC3)cc1 (stereo not shown) [AZ617] | 5.01 | 2.85 | < 5 | < 3 | 
Cc1cc(C)cc(N(C(=O)c2cc(-c3ccccc3)n(-c3ccccc3)n2)C(C(=O)NC2CCCC2)c2ccc(CC(=O)O)cc2)c1 (stereo not shown) [AZ618, 2-(4-(2-(cyclopentylamino)-1-(N-(3,5-dimethylphenyl)-1,5-diphenyl-1H-pyrazole-3-carboxamido)-2-oxoethyl)phenyl)acetic acid] | 20 |  |  |  | not AZ618 induced
CC(C)(C)c1ccc(N(C(=O)c2cc(-c3ccccc3)n(-c3ccccc3)n2)C(C(=O)NC2CCCC2)c2ccc(CC(=O)O)cc2)cc1 (stereo not shown) [AZ902] | 6.31 | > 4.5 |  |  | 

From paper PMC5063506, “A Novel Class of Small Molecule Agonists with Preference for Human over Mouse TLR4 Activation” (PLoS ONE, 2016)
